Four molecules from patent publication US20040087633A1, “Methylidene oxazolidinone compound and preparation method thereof” (Korea Institute of Science and Technology, priority 2002, published 2004) can be followed below.

Common to all, as to test: Anti-microbial activity test in vitro (agar dilution MIC)
In one test the test system is CRSA C1062. The test is classed as cell-based, Staphylococcus aureus. Particulars: CRSA C1062; Agar Dilution method, Mueller Hinton Agar, 18 hours at 37° C. How it is done: (§1) Anti-microbial activity test in vitro
(§2) Strains were cultivated for 18 hours at 37° C. in Agar Dilution method using Mueller Hinton Agar, and then plane plates inoculated with the strains by diluting them two times gradually were aligned in a row. Minimum inhibition concentration (MIC, μg/ml) for the representative compounds of the present invention, Linezolid (LZD) and vancomycin (VAN) were decided through visual observation, and the results are shown in the following tables 2 and 3.
A general note: Agar dilution tests growth on a series of plates holding different concentrations.

The subject of the next test is MRSA C5100. In kind it is cell-based, Staphylococcus aureus. Particulars: MRSA C5100; Agar Dilution method, Mueller Hinton Agar, 18 hours at 37° C. On the procedure: as §1, §2
For the next test, the system named is MRSA C2207. The test is classed as cell-based, Staphylococcus aureus. Particulars: MRSA C2207; Agar Dilution method, Mueller Hinton Agar, 18 hours at 37° C. On the procedure: as §1, §2
For the next test, the system named is MSSA C7142. The test is classed as cell-based, Staphylococcus aureus. Particulars: MSSA C7142; Agar Dilution method, Mueller Hinton Agar, 18 hours at 37° C. On the procedure: as §1, §2
The subject of the next test is CRSA C6043. In kind it is cell-based, Staphylococcus aureus. Particulars: CRSA C6043; Agar Dilution method, Mueller Hinton Agar, 18 hours at 37° C. How it is done: as §1, §2
The subject of the next test is MRSA C6068. The test is classed as cell-based, Staphylococcus aureus. Particulars: MRSA C6068; Agar Dilution method, Mueller Hinton Agar, 18 hours at 37° C. On the procedure: as §1, §2
Another test concerns MSSA C2214. The test is classed as cell-based, Staphylococcus aureus. Particulars: MSSA C2214; Agar Dilution method, Mueller Hinton Agar, 18 hours at 37° C. How it is done:
as §1, §2

The subject of the next test is S. pyogenes C6012. The test is classed as cell-based. Particulars: S. pyogenes C6012; Agar Dilution method, Mueller Hinton Agar, 18 hours at 37° C. How it is done: as §1, §2
Another test has as its system S. aureus ATCC 29213. The test is classed as cell-based. Particulars: Agar Dilution method, Mueller Hinton Agar, 18 hours at 37° C. How it is done:
as §1, §2

The next test relates to S. epidermidis C2235. The test is classed as cell-based. The note with it: S. epidermidis C2235; Agar Dilution method, Mueller Hinton Agar, 18 hours at 37° C. On the procedure:
as §1, §2

In the next test the test system is S. pyogenes ATCC8668. In kind it is cell-based. Particulars: S. pyogenes ATCC8668; Agar Dilution method, Mueller Hinton Agar, 18 hours at 37° C. How it is done: as §1, §2
The next test has as its system E. faecalis ATCC29212. The test is classed as cell-based. Particulars: E. faecalis ATCC29212; Agar Dilution method, Mueller Hinton Agar, 18 hours at 37° C. On the procedure:
as §1, §2

The test system of the next test is E. faecalis C6291. In kind it is cell-based. The note with it: E. faecalis C6291; Agar Dilution method, Mueller Hinton Agar, 18 hours at 37° C. How it is done:
as §1, §2

The subject of the next test is S. pyogenes C6003. In kind it is cell-based. Particulars: S. pyogenes C6003; Agar Dilution method, Mueller Hinton Agar, 18 hours at 37° C. On the procedure:
as §1, §2

The next test deals with S. epidermidis C2230. The test is classed as cell-based. Particulars: S. epidermidis C2230; Agar Dilution method, Mueller Hinton Agar, 18 hours at 37° C. How it is done:
as §1, §2

The subject of a further test is E. faecium C6301. In kind it is cell-based. The note with it: E. faecium C6301; Agar Dilution method, Mueller Hinton Agar, 18 hours at 37° C. On the procedure:
as §1, §2

For the next test, the system named is E. faecalis C6288. The test is classed as cell-based. Particulars: E. faecalis C6288; Agar Dilution method, Mueller Hinton Agar, 18 hours at 37° C. How it is done: as §1, §2
Another test deals with E. faecium C2252. In kind it is cell-based. Particulars: E. faecium C2252; Agar Dilution method, Mueller Hinton Agar, 18 hours at 37° C. On the procedure: as §1, §2
The next test concerns S. epidermidis ATCC12228. The test is classed as cell-based. Particulars: S. epidermidis ATCC12228; Agar Dilution method, Mueller Hinton Agar, 18 hours at 37° C. On the procedure:
as §1, §2

The next test concerns VRE C6488. The test is classed as cell-based, Enterococcus faecium. Particulars: VRE C6488; Agar Dilution method, Mueller Hinton Agar, 18 hours at 37° C. On the procedure: as §1, §2
The test system of another test is VRE C6487. The test is classed as cell-based, Enterococcus faecium. Particulars: VRE C6487; Agar Dilution method, Mueller Hinton Agar, 18 hours at 37° C. How it is done:
as §1, §2

Converted amounts (≈) assume the structure as drawn.

For the molecule `CCOC(=O)C(C#N)=C1CCN(c2ccc(N3C[C@H](CNC(C)=O)OC3=O)cc2F)CC1` [Compound 7, N-[[(5S)-3-[3-fluoro-4-((4-(1-ethoxycarbonyl-1-cyano)-methylidene)piperidinyl)phenyl]-2-oxo-5-oxazolidinyl]methyl]acetamide], the “Minimum inhibition concentration (MIC)” value in the test with CRSA C1062, with MRSA C5100, with MRSA C2207, in the test with MSSA C7142, in the test with CRSA C6043 and in the test with MRSA C6068 was 4 µg/mL (≈ 9 µM) in each case. Also, the “Minimum inhibition concentration (MIC)” value was 4 µg/mL (≈ 9 µM) in the test on MSSA C2214; 1 µg/mL (≈ 2.25 µM) with S. pyogenes C6012; 4 µg/mL (≈ 9 µM) in the test on S. aureus ATCC 29213; 2 µg/mL (≈ 4.5 µM) in the test on S. epidermidis C2235; 1 µg/mL (≈ 2.25 µM) in the test on S. pyogenes ATCC8668; 4 µg/mL (≈ 9 µM) in the test on E. faecalis ATCC29212. The “Minimum inhibition concentration (MIC)” value in the test with E. faecalis C6291 was found to be 4 µg/mL (≈ 9 µM); in the test with S. pyogenes C6003, 4 µg/mL (≈ 9 µM); in the test on S. epidermidis C2230, 2 µg/mL (≈ 4.5 µM); in the test with E. faecium C6301, 2 µg/mL (≈ 4.5 µM); in the test on E. faecalis C6288, 4 µg/mL (≈ 9 µM); with E. faecium C2252, 4 µg/mL (≈ 9 µM). In addition, the “Minimum inhibition concentration (MIC)” value was 1 µg/mL (≈ 2.25 µM) in the test with S. epidermidis ATCC12228, 2 µg/mL (≈ 4.5 µM) with VRE C6488 and 2 µg/mL (≈ 4.5 µM) in the test on VRE C6487.
As for `CC(=O)NC[C@H]1CN(c2ccc(N3CCC(=CC(C)O)CC3)c(F)c2)C(=O)O1` (stereo partly drawn) [Compound 22, N-[[(5S)-3-[3-fluoro-4-(4-(2-hydroxypropylidene)-piperidinyl)-phenyl]-2-oxo-5-oxazolidinyl]methyl]acetamide], the “Minimum inhibition concentration (MIC)” value with CRSA C1062 is 16 µg/mL (≈ 40.9 µM); with MRSA C5100, 8 µg/mL (≈ 20.4 µM); in the test on MRSA C2207, 16 µg/mL (≈ 40.9 µM); in the test on MSSA C7142, 16 µg/mL (≈ 40.9 µM); in the test with CRSA C6043 it was 8 µg/mL (≈ 20.4 µM); in the test on MRSA C6068, 4 µg/mL (≈ 10.2 µM). For the same molecule, the “Minimum inhibition concentration (MIC)” value in the test with MSSA C2214 stood at 16 µg/mL (≈ 40.9 µM); in the test on S. pyogenes C6012, 2 µg/mL (≈ 5.11 µM); in the test on S. aureus ATCC 29213, 8 µg/mL (≈ 20.4 µM); in the test with S. epidermidis C2235, 4 µg/mL (≈ 10.2 µM); with S. pyogenes ATCC8668 it was 2 µg/mL (≈ 5.11 µM); with E. faecalis ATCC29212, 8 µg/mL (≈ 20.4 µM). In addition, the “Minimum inhibition concentration (MIC)” value in the test on E. faecalis C6291 stood at 8 µg/mL (≈ 20.4 µM); with S. pyogenes C6003, 8 µg/mL (≈ 20.4 µM); in the test on S. epidermidis C2230 it was 4 µg/mL (≈ 10.2 µM); in the test with E. faecium C6301, 4 µg/mL (≈ 10.2 µM); in the test with E. faecalis C6288, 4 µg/mL (≈ 10.2 µM); in the test on E. faecium C2252 it was 4 µg/mL (≈ 10.2 µM). For the same molecule, the “Minimum inhibition concentration (MIC)” value with S. epidermidis ATCC12228 came out at 2 µg/mL (≈ 5.11 µM); in the test with VRE C6488 it was 4 µg/mL (≈ 10.2 µM); in the test on VRE C6487, 4 µg/mL (≈ 10.2 µM).
`CC(=O)NC[C@H]1CN(c2ccc(N3CCC(=Cc4cc(-c5csnc5C)no4)CC3)c(F)c2)C(=O)O1` [Compound 10, N-[[(5S)-3-[3-fluoro-4-((4-(3-(3-methyl-isothiazol-4-yl)-iso-xazolyl)methylidene)piperidinyl)phenyl]-2-oxo-5-oxazolidinyl]methyl]acetamide]: the “Minimum inhibition concentration (MIC)” value with CRSA C1062 was 16 µg/mL (≈ 31.3 µM); in the test with MRSA C5100, 8 µg/mL (≈ 15.6 µM); in the test with MRSA C2207, 16 µg/mL (≈ 31.3 µM); in the test on MSSA C7142, 8 µg/mL (≈ 15.6 µM); in the test with CRSA C6043, 16 µg/mL (≈ 31.3 µM); with MRSA C6068 it was 8 µg/mL (≈ 15.6 µM). Further, the “Minimum inhibition concentration (MIC)” value with MSSA C2214 was 16 µg/mL (≈ 31.3 µM); in the test on S. pyogenes C6012, 2 µg/mL (≈ 3.91 µM); in the test on S. aureus ATCC 29213, 16 µg/mL (≈ 31.3 µM); with S. epidermidis C2235, 4 µg/mL (≈ 7.82 µM); with S. pyogenes ATCC8668 it was 2 µg/mL (≈ 3.91 µM); in the test with E. faecalis ATCC29212, 16 µg/mL (≈ 31.3 µM). The “Minimum inhibition concentration (MIC)” value is 8 µg/mL (≈ 15.6 µM) in the test on E. faecalis C6291; 8 µg/mL (≈ 15.6 µM) in the test on S. pyogenes C6003; 4 µg/mL (≈ 7.82 µM) in the test with S. epidermidis C2230; 8 µg/mL (≈ 15.6 µM) in the test on E. faecium C6301; 16 µg/mL (≈ 31.3 µM) in the test on E. faecalis C6288; 8 µg/mL (≈ 15.6 µM) in the test with E. faecium C2252. For the same molecule, the “Minimum inhibition concentration (MIC)” value in the test with S. epidermidis ATCC12228 came out at 2 µg/mL (≈ 3.91 µM); in the test with VRE C6488, 8 µg/mL (≈ 15.6 µM); in the test on VRE C6487, 4 µg/mL (≈ 7.82 µM).
Turning to `CCOC(=O)C(C)=C1CCN(c2ccc(N3C[C@H](CNC(C)=O)OC3=O)cc2F)CC1` [Compound 13, N-[[(5S)-3-[3-fluoro-4-(4-(1-ethoxycarbonylethylidene)-piperidinyl)phenyl]-2-oxo-5-oxazolidinyl]methyl]acetamide], the “Minimum inhibition concentration (MIC)” value in the test with CRSA C1062 came to 16 µg/mL (≈ 36.9 µM); with MRSA C5100 it was 8 µg/mL (≈ 18.5 µM); in the test on MRSA C2207, 16 µg/mL (≈ 36.9 µM); in the test with MSSA C7142, 8 µg/mL (≈ 18.5 µM); in the test on CRSA C6043 it was 8 µg/mL (≈ 18.5 µM); in the test on MRSA C6068, 8 µg/mL (≈ 18.5 µM). The “Minimum inhibition concentration (MIC)” value amounted to 16 µg/mL (≈ 36.9 µM) in the test on MSSA C2214; 16 µg/mL (≈ 36.9 µM) in the test on S. pyogenes C6012; 16 µg/mL (≈ 36.9 µM) in the test with S. aureus ATCC 29213; 8 µg/mL (≈ 18.5 µM) in the test with S. epidermidis C2235; 8 µg/mL (≈ 18.5 µM) in the test with S. pyogenes ATCC8668; 16 µg/mL (≈ 36.9 µM) in the test with E. faecalis ATCC29212. In addition, the “Minimum inhibition concentration (MIC)” value turned out to be 8 µg/mL (≈ 18.5 µM) in the test with E. faecalis C6291; 4 µg/mL (≈ 9.23 µM) in the test with S. pyogenes C6003; 16 µg/mL (≈ 36.9 µM) in the test with S. epidermidis C2230; 8 µg/mL (≈ 18.5 µM) in the test with E. faecium C6301; 16 µg/mL (≈ 36.9 µM) in the test on E. faecalis C6288; 8 µg/mL (≈ 18.5 µM) with E. faecium C2252. Besides, the “Minimum inhibition concentration (MIC)” value amounted to 4 µg/mL (≈ 9.23 µM) in the test with S. epidermidis ATCC12228, 8 µg/mL (≈ 18.5 µM) with VRE C6488 and 1 µg/mL (≈ 2.31 µM) in the test on VRE C6487.
